Measured values taken from patent US20240132450A1, “MODULATORS OF G PROTEIN-COUPLED RECEPTOR 88” (ACADIA Pharmaceuticals Inc., priority 2020, published 2024).
Read-outs that look alike come from different tables or passages of the source.

Columns and labels:
hGPR88 receptor = hGPR88 receptor (Homo sapiens, UniProt Q9GZN0); test: hGPR88-HEK cAMP accumulation assay; conditions: HEK-293 cells expressing human recombinant GPR88, forskolin 200 nM, High/Medium/Low bands
Description: Biological Assay 1: hGPR88-HEK cAMP Accumulation Assay
Cryopreserved vials of HEK-293 cells expressing human recombinant GPR88 receptor are re-suspended in KRH assay buffer and 5 μl of cell solution is suspended in test wells at a seeding density of 2500±500 cells per well using the multidrop to provide a final reaction volume of 10 μl containing 0.5% DMSO. Assay plate is incubated for 30 min at room temperature and the reaction is terminated by addition of 5 μl of each of the cAMP detection reagents of the cAMP Gi kit (Cisbio Bioassays, 62AM9PEJ), diluted in cell lysis buffer, to each well using the multidrop in the following order: first the cAMP-d2 conjugate, then the anti-cAMP cryptate conjugate. […] Raw counts were converted to cAMP concentrations via a standard curve before EC50 and Emax determination. Data is expressed as % decrease in forskolin stimulated cAMP compared to cells treated with vehicle alone in the same buffer and on the same plate.

[1] = Hepatocyte stability (mouse); assay type: in vitro ADME; conditions: test compound 3 μM, 60 min; for hepatocyte CLint at 3 μM: mouse, cryopreserved pooled hepatocytes in suspension, read-out: Mouse heps Clint; for Mouse heps Clint: mouse cryopreserved hepatocytes
Description: (iii) Hepatocyte Stability (Human, Mouse, Rat or Dog)
Test compound (3 μM) is incubated with cryopreserved hepatocytes in suspension. Samples are removed at 6 time points over the course of a 60 min experiment and test compound is analysed by LC-MS/MS. An intrinsic clearance value (CLint) with standard error and half-life (t %) are calculated. Cryopreserved pooled hepatocytes are stored in liquid nitrogen prior to use. […] The final incubation volume is 500 μL. A control incubation is included for each compound tested where lysed cells are added instead of viable cells. Two control compounds are included with each species.
The reactions are stopped by transferring 50 μL of incubate to 100 μL methanol containing internal standard at the appropriate time points. The control (lysed cells) is incubated for 60 min only. The termination plates are centrifuged at 2500 rpm at 4° C. for 30 min to precipitate the protein. Following protein precipitation, the sample supernatants are combined in cassettes of up to 4 compounds and analysed using generic LC-MS/MS conditions. From a plot of In peak area ratio (compound peak area/internal standard peak area) against time, the gradient of the line is determined. Subsequently, half-life (t %) and intrinsic clearance (CLint) are calculated using the equations below: […]

[2] = target: T1, dopamine uptake transporter (rat DAT) (Rattus norvegicus, UniProt P23977); test: Dopamine transporter uptake assay; assay type: biochemical; conditions: rat striatum synaptosomes, [3H]dopamine
T1 construct: is determined in rat striatum synaptosomes following [^3H]dopamine scintillation counting; from tissue; host or cells: rat striatum synaptosomes

[3] = read-out: GRP88 agonist activity (EC50)

Chain of hGPR88 receptor (Q9GZN0 whole entry): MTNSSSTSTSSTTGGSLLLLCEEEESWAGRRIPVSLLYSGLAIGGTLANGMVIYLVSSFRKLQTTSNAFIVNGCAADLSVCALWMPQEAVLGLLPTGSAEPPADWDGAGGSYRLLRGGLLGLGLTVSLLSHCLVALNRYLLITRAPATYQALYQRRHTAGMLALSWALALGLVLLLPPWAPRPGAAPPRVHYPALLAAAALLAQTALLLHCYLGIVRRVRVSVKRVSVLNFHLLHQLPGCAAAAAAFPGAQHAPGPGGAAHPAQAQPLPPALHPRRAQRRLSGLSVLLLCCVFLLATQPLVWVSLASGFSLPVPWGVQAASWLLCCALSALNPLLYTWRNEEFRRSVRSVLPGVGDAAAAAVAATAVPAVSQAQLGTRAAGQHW
T1 sequence (P23977 whole entry): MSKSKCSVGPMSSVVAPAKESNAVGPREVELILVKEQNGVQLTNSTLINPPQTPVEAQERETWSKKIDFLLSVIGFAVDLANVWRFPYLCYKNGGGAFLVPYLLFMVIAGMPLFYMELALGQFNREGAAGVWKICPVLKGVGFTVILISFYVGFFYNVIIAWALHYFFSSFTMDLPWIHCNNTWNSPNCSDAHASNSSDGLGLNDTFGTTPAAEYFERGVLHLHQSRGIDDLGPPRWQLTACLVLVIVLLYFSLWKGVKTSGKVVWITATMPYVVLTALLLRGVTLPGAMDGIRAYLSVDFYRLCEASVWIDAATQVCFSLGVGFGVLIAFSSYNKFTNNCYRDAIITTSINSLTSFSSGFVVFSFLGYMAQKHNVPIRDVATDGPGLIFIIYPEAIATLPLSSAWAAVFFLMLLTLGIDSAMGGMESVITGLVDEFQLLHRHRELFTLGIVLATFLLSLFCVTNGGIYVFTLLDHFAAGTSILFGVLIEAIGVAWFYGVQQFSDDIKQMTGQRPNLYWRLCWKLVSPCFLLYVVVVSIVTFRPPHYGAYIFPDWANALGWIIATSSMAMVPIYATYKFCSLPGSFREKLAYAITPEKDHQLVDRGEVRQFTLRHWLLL

Structure (SMILES) | EC50 (hGPR88 receptor; GRP88 agonist activity (EC50)) [nM] | hepatocyte CLint at 3 μM [1] [µL/min/1e6 cells] | further results
CCCc1ccc(C23CC(NC(=O)C4CC4c4ccccn4)(C2)C3)cc1 (racemic) [Example 8, (rac-trans)-N-(3-(4-propylphenyl)bicyclo[1.1.1]pentan-1-yl)-2-(pyridin-2-yl)cyclopropane-1-carboxamide] | < 1000 | 55 | 
COCc1ccc(-c2ccc(NC(=O)C3CC3c3ccccn3)cc2)cc1 (racemic) [Example 18, N-(4′-(methoxymethyl)-[1,1′-biphenyl]-4-yl)-2-(pyridin-2-yl)cyclopropane-1-carboxamide] |  |  | Inhibition of dopamine uptake transporter (% inhibition at 10 μM compound) ([2]; 10 µM): 0 % inhibition
CCCc1ccc(C23CC(NC(=O)C4CC4c4ccccn4)(C2)C3)cc1 (racemic) [Example 35, (rac-trans)-N-(3-(4-propylphenyl)bicyclo[1.1.1]pentan-1-yl)-2-(pyridin-2-yl)cyclopropane-1-carboxamide] | < 1000 |  | Mouse heps Clint [1]: 49 μL/min/10^6 cells
CCOc1ccc(-c2ccc(NC(=O)C3CC3c3ccccn3)cc2)cn1 (racemic) [Example 36, (rac-trans)-N-(4-(6-ethoxypyridin-3-yl)phenyl)-2-(pyridin-2-yl)cyclopropane-1-carboxamide] | 1000 to 5000 |  | Mouse heps Clint [1]: 80 μL/min/10^6 cells
COCc1ccc(-c2ccc(NC(=O)C3CC3c3ccccn3)nc2)cc1 (racemic) [Example 45, (rac-trans)-N-(5-(4-(methoxymethyl)phenyl)pyridin-2-yl)-2-(pyridin-2-yl)cyclopropane-1-carboxamide] |  |  | Inhibition of dopamine uptake transporter (% inhibition at 10 μM compound) [2]: 28 % inhibition
CCOc1ccc(-c2ccc(NC(=O)C3CC3c3ccccn3)cc2)cn1 (racemic) [Example 75, (rac-trans)-N-(4-(6-ethoxypyridin-3-yl)phenyl)-2-(pyridin-2-yl)cyclopropane-1-carboxamide] |  |  | EC50 (hGPR88 receptor; [3]): 1000 to 5000 nM; Inhibition of dopamine uptake transporter (% inhibition at 10 μM compound) ([2]; 10 µM): 5 % inhibition
COCc1ccc(-c2ccc(NC(=O)C3CC3c3ccccn3)cc2)cc1 (single isomer, unassigned) [Example 18, N-(4′-(methoxymethyl)-[1,1′-biphenyl]-4-yl)-2-(pyridin-2-yl)cyclopropane-1-carboxamide] | < 1000 | 70 | 
O=C(Nc1ccc(-c2ccc(CN3CCOCC3)cc2)cc1)C1CC1c1ccccn1 (single isomer, unassigned) [Example 78, (1R*,2R*)-N-(4′-(morpholinomethyl)-[1,1′-biphenyl]-4-yl)-2-(pyridin-2-yl)cyclopropane-1-carboxamide] |  |  | Inhibition of dopamine uptake transporter (% inhibition at 10 μM compound) [2]: 17 % inhibition
COCc1ccc(-c2ccc(NC(=O)C(C)(C)Oc3ccc(Cl)cc3)cc2)cc1 [Example 3] | < 1000 | 30 | 
COCc1ccc(-c2ccc(NC(=O)C(C)(C)Oc3ccccc3)cc2)cc1 [Example 4, N-(4′-(methoxymethyl)-[1,1′-biphenyl]-4-yl)-2-methyl-2-phenoxypropanamide] | < 1000 | 51 | 
COCc1ccc(-c2ccc(NC(=O)C(C)(C)Oc3ccccn3)cc2)cc1 [Example 7, N-(4′-(methoxymethyl)-[1,1′-biphenyl]-4-yl)-2-methyl-2-(pyridin-2-yloxy)propanamide] | 1000 to 5000 | 46 | 
CCCc1ccc(C23CC(NC(=O)C(C)(C)Oc4ccc(F)cc4)(C2)C3)cc1 [Example 9, 2-(4-fluorophenoxy)-2-methyl-N-(3-(4-propylphenyl)bicyclo[1.1.1]pentan-1-yl)propenamide] | 1000 to 5000 | 39 | 
COCc1ccc(-c2ccc(N(C)C(=O)C(C)(C)Oc3ccc(F)cc3)cc2)cc1 [Example 13, 2-(4-fluorophenoxy)-N-(4′-(methoxymethyl)-[1,1′-biphenyl]-4-yl)-N,2-dimethylpropanamide] | 1000 to 5000 | 90 | 
CN(C)Cc1ccc(-c2ccc(NC(=O)C(C)(C)Oc3ccc(F)cc3)cc2)cc1 [Example 17, N-(4′-((dimethylamino)methyl)-[1,1′-biphenyl]-4-yl)-2-(4-fluorophenoxy)-2-methylpropanamide] | 1000 to 5000 | 37 | 
CC(C)(Oc1ccc(F)cc1)C(=O)Nc1ccc(-c2ccc(CN3CCOCC3)cc2)cc1 [Example 25, 2-(4-fluorophenoxy)-2-methyl-N-(4′-(morpholinomethyl)-[1,1′-biphenyl]-4-yl)propenamide] | < 1000 | 41 | 
COCc1ccc(-c2ccc3c(c2)CCN3C(=O)C(C)(C)Oc2ccc(F)cc2)cc1 [Example 32, 2-(4-fluorophenoxy)-1-(5-(4-(methoxymethyl)phenyl)indolin-1-yl)-2-methylpropan-1-one] | 1000 to 5000 | 65 | 
CN(C)c1ncc(-c2ccc(NC(=O)C(C)(C)Oc3ccc(F)cc3)cc2)cn1 [Example 49, N-(4-(2-(dimethylamino)pyrimidin-5-yl)phenyl)-2-(4-fluorophenoxy)-2-methylpropanamide] | < 1000 |  | Inhibition of dopamine uptake transporter (% inhibition at 10 μM compound) [2]: 0 % inhibition
COCc1ccc(-c2ccc(N(CC(C)(C)O)C(=O)C3CC3c3ccccn3)cc2)cc1 (stereo not shown) [Example 142, N-(2-hydroxy-2-methylpropyl)-N-(4′-(methoxymethyl)-[1,1′-biphenyl]-4-yl)-2-(pyridin-2-yl)cyclopropane-1-carboxamide] |  |  | EC50 (hGPR88 receptor; [3]): > 5000 nM
CCCc1ccc(-c2ccc(N(C[C@@H](N)[C@@H](C)CC)C(=O)[C@@H]3C[C@H]3c3ccccn3)cc2)cc1 [Literature comparative 2, 2-PCCA, reference compound] |  |  | Inhibition of dopamine uptake transporter (% inhibition at 10 μM compound) [2]: 90 % inhibition

Second part, led by results:

EC50 (hGPR88 receptor; GRP88 agonist activity (EC50)) [nM] | hepatocyte CLint at 3 μM [1] [µL/min/1e6 cells] | Structure (SMILES) | further results
 | 30 | COCc1ccc(-c2ccc(NC(=O)C3CC3c3ccccn3)nc2)cc1 (racemic) [Example 121, (rac-trans)-N-(5-(4-(methoxymethyl)phenyl)pyridin-2-yl)-2-(pyridin-2-yl)cyclopropane-1-carboxamide] | EC50 (hGPR88 receptor; [3]): 1000 to 5000 nM
> 5000 |  | COCc1ccc([C@]23C[C@](NC(=O)C4CC4c4ccccn4)(C2)C3)nc1 (mixture of isomers) [Example 136, N-(3-(5-(methoxymethyl)pyridin-2-yl)bicyclo[1.1.1]pentan-1-yl)-2-(pyridin-2-yl)cyclopropane-1-carboxamide] | Inhibition of dopamine uptake transporter (% inhibition at 10 μM compound) [2]: 2 % inhibition
1000 to 5000 |  | CCCc1ccc([C@]23C[C@](NC(=O)C4CC4c4ccccn4)(C2)C3)nc1 (mixture of isomers) [Example 137, N-(3-(5-propylpyridin-2-yl)bicyclo[1.1.1]pentan-1-yl)-2-(pyridin-2-yl)cyclopropane-1-carboxamide] | Inhibition of dopamine uptake transporter (% inhibition at 10 μM compound) [2]: 10 % inhibition
< 1000 | 71 | COCc1ccc(-c2ccc(NC(=O)C3(Oc4ccc(F)cc4)CC3)cc2)cc1 [Example 53, 1-(4-fluorophenoxy)-N-(4′-(methoxymethyl)-[1,1′-biphenyl]-4-yl)cyclopropane-1-carboxamide] | 
< 1000 | 37 | COCc1ccc(-c2ccc(NC(=O)C(C)(C)Oc3ccc(C#N)cc3)cc2)cc1 [Example 68, 2-(4-cyanophenoxy)-N-(4′-(methoxymethyl)-[1,1′-biphenyl]-4-yl)-2-methylpropanamide] | 
< 1000 | 74 | CCOc1ccc(OC(C)(C)C(=O)Nc2ccc(-c3ccc(COC)cc3)cc2)cc1 [Example 70, 2-(4-ethoxyphenoxy)-N-(4′-(methoxymethyl)-[1,1′-biphenyl]-4-yl)-2-methylpropanamide] | 
< 1000 |  | CN(C)c1ccc(-c2ccc(NC(=O)C(C)(C)Oc3ccc(F)cc3)cc2)cn1 [Example 79, N-(4-(6-(dimethylamino)pyridin-3-yl)phenyl)-2-(4-fluorophenoxy)-2-methylpropanamide] | Inhibition of dopamine uptake transporter (% inhibition at 10 μM compound) [2]: 21 % inhibition
< 1000 | 47 | CC(C)Oc1ccc(-c2ccc(NC(=O)C(C)(C)Oc3ccc(F)cc3)cc2)cn1 [Example 92, 2-(4-fluorophenoxy)-N-(4-(6-isopropoxypyridin-3-yl)phenyl)-2-methylpropanamide] | 
1000 to 5000 |  | COCc1ccc([C@]23C[C@](NC(=O)C(C)(C)Oc4ccc(F)cc4)(C2)C3)cc1 [Example 135, 2-(4-fluorophenoxy)-N-(3-(4-(methoxymethyl)phenyl)bicyclo[1.1.1]pentan-1-yl)-2-methylpropanamide] | Inhibition of dopamine uptake transporter (% inhibition at 10 μM compound) [2]: 8 % inhibition
> 5000 |  | COCc1ccc(-c2ccc(N(CC(C)(C)O)C(=O)C3CC3c3ccccn3)cc2)cc1 (stereo not shown) [Example 141, N-(2-hydroxy-2-methylpropyl)-N-(4′-(methoxymethyl)-[1,1′-biphenyl]-4-yl)-2-(pyridin-2-yl)cyclopropane-1-carboxamide] | 
